Experiments:
T47D = assay: Cytotoxicity against Homo sapiens (human) T47D cells assessed as inhibition of cell proliferation after 72 hr by MTT assay; assay type: functional, cell-based
MDA-MB-231 = assay: Cytotoxicity against Homo sapiens (human) MDA-MB-231 cells assessed as inhibition of cell proliferation after 72 hr by MTT assay; assay type: functional, cell-based; settings: MDA-MB-231, 72 h
MCF7 = assay: Cytotoxicity against Homo sapiens (human) MCF7 cells assessed as inhibition of cell proliferation after 72 hr by MTT assay; assay type: functional, cell-based; settings: MCF7, 72 h
MCF7 (Homo sapiens) = assay: Cytotoxicity against Homo sapiens (human) MCF7 cells assessed as inhibition of cell proliferation after 72 hr by MTT assay; settings: MCF7, 72 h

Structure (SMILES) | IC50 (T47D) | IC50 (MDA-MB-231) | IC50 (MCF7) | IC50 (MCF7 (Homo sapiens))
Fc1ccc(-c2nc(-c3ccc(OCCN4CCCCC4)cc3)c(-c3ccccc3)[nH]2)cc1 | 61 µM | 78 µM | > 100 µM | 
CN(C)CCOc1ccc(-c2nc(-c3ccc(F)cc3)[nH]c2-c2ccccc2)cc1 | 61 µM |  |  | 82 µM
Oc1ccc(-c2nc(-c3ccc(OCCN4CCCCC4)cc3)c(-c3ccccc3)[nH]2)cc1 | < 0.1 µM | < 0.1 µM | < 0.1 µM | 
COc1ccc(-c2nc(-c3ccc(OCCN4CCCCC4)cc3)c(-c3ccccc3)[nH]2)cc1 | 54 µM | 65 µM | 71 µM | 
CN(C)CCOc1ccc(-c2nc(-c3ccccc3)[nH]c2-c2ccccc2)cc1 | 50 µM | 53 µM |  | 
CN(C)CCOc1ccc(-c2nc(-c3ccc(O)cc3)[nH]c2-c2ccccc2)cc1 | 63 µM | 70 µM | 82 µM | 
COc1ccc(-c2nc(-c3ccc(OCCN(C)C)cc3)c(-c3ccccc3)[nH]2)cc1 | 28 µM | 42 µM |  | 
c1ccc(-c2nc(-c3ccc(OCCN4CCCCC4)cc3)c(-c3ccccc3)[nH]2)cc1 | < 0.1 µM | < 0.1 µM | < 0.1 µM | 
CC/C(=C(\c1ccccc1)c1ccc(OCCN(C)C)cc1)c1ccccc1 [TAMOXIFEN] | 12.1 µM | 25.1 µM | 55.5 µM | 

— ChEMBL document CHEMBL3046729, “Design, synthesis, and cytotoxic activities of new 2,4,5-triarylimidazoles” (Med Chem Res, 2013)
